Among the data in EP3885436A1, “POLYPEPTIDES WITH PEROXIDASE ACTIVITY” (Technische Universität Wien, priority 2020, dated 2021) are kcat values, retold here.

Type in all cases: biochemical
Experiment [1] deals with T1, horseradish peroxidase variant HRP N13D/N57S/P146Q/N175S/N255D/N268D/N275K (mHRP, SEQ ID NO: 4), produced in E. coli (Armoracia rusticana, UniProt P00433, N205S/N285D/N298D/N305K/N43D/N87S/P176Q).
T1 construct: made in house
On the procedure: (§1) Plant HRP Type VI-A (Cat. No.: P6782) was obtained from Sigma-Aldrich (St. Louis, MO, USA). All HRP variants produced in E. coli consisted of the sequence as set forth in SEQ ID NO: 2 with the indicated mutations unless specified otherwise.
(§2) For measurements with 3,3',5,5'-tetramethylbenzidine (TMB) as substrate, the reaction mixture in each well of the 96-well plate contained a saturating hydrogen peroxide concentration of 1 mM and varying TMB concentrations (20 - 550 µM) in 50 mM phosphate-citrate buffer pH 5 in a final volume of 200 µL. Protein sample (5 µL) was mixed with 175 µl TMB-buffer mixture and the reaction was started with 20 µl hydrogen peroxide solution (10 mM). The increase in absorption was followed at 652 nm for 60s at 30 °C in a Tecan Infinite M200 PRO instrument. The kinetic parameters were calculated using Sigma Plot software (Systat Software INC., San Jose, CA, USA) and an extinction coefficient of ε652 = 39 mM^-1 cm^-1 (see Josephy, et al. "The horseradish peroxidase-catalyzed oxidation of 3, 5, 3', 5'-tetramethylbenzidine. Free radical and charge-transfer complex intermediates." Journal of Biological Chemistry 257.7 (1982): 3669-3675).
(§3) The increase in absorption was followed at 420 nm for 120 s at 30 °C in a Tecan Infinite M200 PRO instrument. The kinetic parameters were calculated using Sigma Plot software (Systat Software INC., San Jose, CA, USA) and an extinction coefficient of ε420 = 36 mM^-1 cm^-1 (see Childs and Bardsley. "The steady-state kinetics of peroxidase with 2, 2'-azino-di-(3-ethyl-benzthiazoline-6-sulphonic acid) as chromogen." Biochemical Journal 145.1 (1975): 93-103).
as §3

Experiment [2] addresses T2, horseradish peroxidase variant HRP N13D/N57S/N175S/N255D/N268D, produced in E. coli (Armoracia rusticana, UniProt P00433, N205S/N285D/N298D/N43D/N87S).
T2 construct: made in house
On the procedure:
as §1, §2, §3, §3

For experiment [3], the target named is T3, horseradish peroxidase, wild-type HRP (rHRP, variant C1A, SEQ ID NO: 2), produced in E. coli (Armoracia rusticana, UniProt P00433).
T3 construct: made in house
T3 sequence (P00433 with tags, fused parts or gaps): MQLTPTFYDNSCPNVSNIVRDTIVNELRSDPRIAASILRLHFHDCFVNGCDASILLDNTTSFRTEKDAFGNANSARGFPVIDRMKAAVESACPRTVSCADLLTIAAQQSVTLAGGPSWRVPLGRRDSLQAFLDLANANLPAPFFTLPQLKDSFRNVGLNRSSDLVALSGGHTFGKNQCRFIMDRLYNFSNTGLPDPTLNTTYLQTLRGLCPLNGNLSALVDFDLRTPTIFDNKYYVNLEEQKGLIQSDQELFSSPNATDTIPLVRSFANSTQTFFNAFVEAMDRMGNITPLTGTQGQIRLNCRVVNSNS
The experiment is described as follows: Enzyme kinetic parameters, 96-well plate assay. Particulars: substrate TMB (20 - 550 µM), 1 mM H2O2, 50 mM phosphate-citrate buffer pH 5, 30 °C; Table 6. The protocol: as §1, §2
(§4) The increase in absorption was followed at 420 nm for 120 s at 30 °C in a Tecan Infinite M200 PRO instrument. […]

Experiment [4] has as its target T4, plant-derived HRP (pHRP), Plant HRP Type VI-A, horseradish peroxidase (Armoracia rusticana, UniProt P00433).
T4 construct: The plant-derived enzyme undergoes post-translational modifications, resulting inter alia in a free N-terminus without an appended methionine; purchased Sigma-Aldrich P6782; host or cells: extracted from the plant
T4 sequence (P00433 31-338 limits assumed): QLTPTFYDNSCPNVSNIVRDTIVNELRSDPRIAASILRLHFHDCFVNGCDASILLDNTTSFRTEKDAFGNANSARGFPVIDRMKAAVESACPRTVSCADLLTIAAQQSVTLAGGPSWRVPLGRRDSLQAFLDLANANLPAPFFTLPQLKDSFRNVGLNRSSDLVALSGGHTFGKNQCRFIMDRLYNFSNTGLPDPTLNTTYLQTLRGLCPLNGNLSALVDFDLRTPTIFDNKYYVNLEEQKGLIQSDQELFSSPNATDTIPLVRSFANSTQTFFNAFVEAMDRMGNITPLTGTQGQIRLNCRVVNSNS
The experiment is described as follows: Enzyme kinetic parameters, 96-well plate assay. The following applies: substrate TMB (20 - 550 µM), 1 mM H2O2, 50 mM phosphate-citrate buffer pH 5, 30 °C; Table 6. The protocol:
as §1, §2, §4

The mark [5] stands for this setting: substrate H2O2 (0.001 - 1 mM), 10 mM ABTS, 50 mM phosphate-citrate buffer pH 5, 30 °C, Table 3.

Read-outs that look alike come from different tables or passages of the source.

T1 sequence (P00433 31-338 N43D/N87S/P176Q/N205S/N285D/N298D/N305K): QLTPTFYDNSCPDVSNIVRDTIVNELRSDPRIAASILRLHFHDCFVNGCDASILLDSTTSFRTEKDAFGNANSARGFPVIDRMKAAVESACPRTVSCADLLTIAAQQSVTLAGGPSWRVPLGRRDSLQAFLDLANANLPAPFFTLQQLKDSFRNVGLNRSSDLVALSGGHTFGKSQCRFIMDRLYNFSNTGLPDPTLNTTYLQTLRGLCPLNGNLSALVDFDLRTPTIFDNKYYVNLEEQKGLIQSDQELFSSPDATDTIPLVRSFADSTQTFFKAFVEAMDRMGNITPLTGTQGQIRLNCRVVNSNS
T2 sequence (P00433 31-338 N43D/N87S/N205S/N285D/N298D): as the sequence (P00433 31-338 N43D/N87S/P176Q/N205S/N285D/N298D/N305K) above, with Q146P, K275N counted along it

The kcat is the maximal rate divided by the concentration of active sites. For the compound `OO` [H2O2, hydrogen peroxide], the kcat in experiment [1] (setting [5]) was found to be 1344 ± 22 s⁻¹; in experiment [2] (setting [5]) it was 1152 s⁻¹.

Consider `Cc1cc(-c2cc(C)c(N)c(C)c2)cc(C)c1N` [TMB, 3,3',5,5'-tetramethylbenzidine], for which the kcat is 4169 ± 207 s⁻¹ in experiment [3]; 4343 s⁻¹ in experiment [4]; 4342 ± 292 s⁻¹ in experiment [1] (substrate TMB (20 - 550 µM), 1 mM H2O2, 50 mM phosphate-citrate buffer pH 5, 30 °C, Table 2 (Example 3)); 4293 ± 171 s⁻¹ in experiment [1] (substrate TMB (20 - 550 µM), 1 mM H2O2, 50 mM phosphate-citrate buffer pH 5, 30 °C, Table 6 (Example 4)); 3236 ± 193 s⁻¹ in experiment [2] (substrate TMB (20 - 550 µM), 1 mM H2O2, 50 mM phosphate-citrate buffer pH 5, 30 °C, Table 2).
